The first test deals with IL-2 production in a Human Jurkat Cell Line. Description: Inhibition of IL-2 production in PHA-stimulated Jurkat cells (IL-2 ELISA). It is filed as cell-based. The conditions noted are these: Homo sapiens, Jurkat, 20 h, read-out: IC50 (concentration at which IL-2 release is inhibited by 50%). On the procedure:
Jurkat cells (ATCC, Cat# TIB-152) were grown in RPMI1640 medium (ATCC, Cat# 30-2001) containing 10% of FBS (ATCC, Cat# 30-2020). For compound screening, Jurkat cells were plated in 96-well plates at a density of 0.5 million cells per well in RPMI1640 medium containing 1% of FBS. Then, various concentrations of each test compound were added to the cell plates followed by addition of PHA (Sigma, Cat# L-9017) at a final concentration of 2.5 μg/ml to stimulate IL-2 production. Cells were then incubated at 37° C. (+5% CO2) for 20 hours before ELISA assay. After 20 hours incubation, cell plates were centrifuged at 500-800 g for 5 minutes and the supernatants was collected for IL-2 detection using the human IL-2 ELISA kit purchased from Cell Sciences (Cat# 851.500.020). The ELISA assay for IL-2 production was done in 96-well plates using a protocol provided by Cell Sciences.
The IC50 (i.e., the concentration at which IL-2 release is inhibited by 50%) was determined and the results are shown in the Table. […] The designation “A” means an IC50 less than 0.010 μM; the designation B means an IC50 between 0.010 and 1.0 μM; and the designation “C” mean an IC50 greater than 1 μM.
Background: In an ELISA, binding on a coated surface is turned into a signal by an enzyme label.
Take `N#C/C(=C\c1ccc(-n2nc(C(F)(F)F)cc2OC(F)F)cc1)c1cccc(F)c1F` [Compound 1]: the IC50 fell in the range of 10 to 1000 nM.

As for `N#CC(=Cc1ccc(-n2nc(C(F)(F)F)cc2OC(F)F)cc1)c1ccccc1F` [Compound 2, 3-[4-(5-Difluoromethoxy-3-trifluoromethyl-pyrazol-1-yl)-phenyl]-2-(2-fluoro-phenyl)-acrylonitrile], the IC50 lay in the range of 10 to 1000 nM.

`N#CC(=Cc1ccc(-n2nc(C(F)(F)F)cc2OC(F)F)cc1)c1cc(F)ccc1F` [Compound 3, 3-[4-(5-Difluoromethoxy-3-trifluoromethyl-pyrazol-1-yl)-phenyl]-2-(2,5-difluoro-phenyl)-acrylonitrile]: the IC50 fell in the range of 10 to 1000 nM.

As for `N#C/C(=C\c1ccc(-n2nc(C(F)(F)F)cc2C(F)(F)F)cc1)c1cccc(F)c1F` [Compound 4, 3-[4-(3,5-Bis-trifluoromethyl-pyrazol-1-yl)-phenyl]-2-(2,3-difluoro-phenyl)-acrylonitrile], the IC50 was < 10 nM.

In the case of `N#CC(=Cc1ccc(-n2nc(C(F)(F)F)cc2C(F)(F)F)cc1)c1cc(F)ccc1F` [Compound 5, 3-[4-(3,5-Bis-trifluoromethyl-pyrazol-1-yl)-phenyl]-2-(2,5-difluoro-phenyl)-acrylonitrile], the IC50 was < 10 nM.

On to `N#CC(=Cc1ccc(-n2nc(C(F)(F)F)cc2C(F)(F)F)cc1)c1ccccc1F` [Compound 6, 3-[4-(3,5-Bis-trifluoromethyl-pyrazol-1-yl)-phenyl]-2-(2-fluoro-phenyl)-acrylonitrile], for which the IC50 was 10 to 1000 nM.

`N#CC(=Cc1ccc(-n2nc(C(F)(F)F)cc2C(F)(F)F)cc1)c1ccc(F)c(F)c1F` [Compound 8, 3-[4-(3,5-Bis-trifluoromethyl-pyrazol-1-yl)-phenyl]-2-(2,3,4-trifluoro-phenyl)-acrylonitrile]: the IC50 lay in the range of 10 to 1000 nM.

Turning to `N#CC(=Cc1ccc(-n2nc(C(F)(F)F)cc2C(F)(F)F)cc1)c1c(F)ccc(F)c1F` [Compound 9, 3-[4-(3,5-Bis-trifluoromethyl-pyrazol-1-yl)-phenyl]-2-(2,3,6-trifluoro-phenyl)-acrylonitrile], the IC50 was < 10 nM.

For `N#CC(=Cc1ccc(-n2nc(C(F)(F)F)cc2C(F)(F)F)cc1)c1cc(F)c(F)c(F)c1` [Compound 10, 3-[4-(3,5-Bis-trifluoromethyl-pyrazol-1-yl)-phenyl]-2-(3,4,5-trifluoro-phenyl)-acrylonitrile], the IC50 was 10 to 1000 nM.

Consider `N#CC(=Cc1ccc(-n2nc(C(F)(F)F)cc2C(F)(F)F)cc1)c1cc(F)c(F)cc1F` [Compound 12, 3-[4-(3,5-Bis-trifluoromethyl-pyrazol-1-yl)-phenyl]-2-(3,4,6-trifluoro-phenyl)-acrylonitrile], for which the IC50 lay within 10 to 1000 nM.

As to `Cc1cc(C(F)(F)F)n(-c2ccc(/C=C(\C#N)c3cc(F)ccc3F)cc2)n1` [Compound 15, 2-(2,5-Difluoro-phenyl)-3-[4-(3-methyl-5-trifluoromethyl-pyrazol-1-yl)-phenyl]-acrylonitrile], the IC50 lay within 10 to 1000 nM.

Consider `N#CC(=Cc1ccc(-n2ccc(C(F)(F)F)n2)cc1)c1ccc(F)cc1F` [Compound 16, 2-(2,4-Difluoro-phenyl)-3-[4-(3-trifluoromethyl-pyrazol-1-yl)-phenyl]-acrylonitrile], for which the IC50 was > 1000 nM.

For `Cc1cc(C(F)(F)F)n(-c2ccc(C=C(C#N)c3cccc(F)c3F)cc2)n1` [Compound 18, 2-(2,3-Difluoro-phenyl)-3-[4-(3-methyl-5-trifluoromethyl-pyrazol-1-yl)-phenyl]-acrylonitrile], the IC50 lay within 10 to 1000 nM.

With `Cc1cc(C(F)(F)F)n(-c2ccc(C=C(C#N)c3ccc(F)cc3F)cc2)n1` [Compound 19, 2-(2,4-Difluoro-phenyl)-3-[4-(3-methyl-5-trifluoromethyl-pyrazol-1-yl)-phenyl]-acrylonitrile], the IC50 lay in the range of 10 to 1000 nM.

As for `Cc1cc(C(F)(F)F)n(-c2ccc(C=C(C#N)c3c(F)cccc3F)cc2)n1` [Compound 20, 2-(2,6-Difluoro-phenyl)-3-[4-(3-methyl-5-trifluoromethyl-pyrazol-1-yl)-phenyl]-acrylonitrile], the IC50 is 10 to 1000 nM.

In the case of `Cc1cc(C(F)(F)F)n(-c2ccc(C=C(C#N)c3ccc(F)c(F)c3)cc2)n1` [Compound 21, 2-(3,4-Difluoro-phenyl)-3-[4-(3-methyl-5-trifluoromethyl-pyrazol-1-yl)-phenyl]-acrylonitrile], the IC50 lay within 10 to 1000 nM.

On to `Cc1cc(C(F)(F)F)n(-c2ccc(C=C(C#N)c3cc(F)cc(F)c3)cc2)n1` [Compound 22, 2-(3,5-Difluoro-phenyl)-3-[4-(3-methyl-5-trifluoromethyl-pyrazol-1-yl)-phenyl]-acrylonitrile], for which the IC50 was 10 to 1000 nM.

As to `N#CC(=Cc1ccc(-n2cccn2)cc1)c1ccccc1` [Compound 23, 2-Phenyl-3-(4-pyrazol-1-yl-phenyl)-acrylonitrile], the IC50 was > 1000 nM.

On to `N#CC(=Cc1ccc(-n2cccn2)cc1)c1cc(F)ccc1F` [Compound 24, 2-(2,5-Difluoro-phenyl)-3-(4-pyrazol-1-yl-phenyl)-acrylonitrile], for which the IC50 was > 1000 nM.

On to `N#C/C(=C\c1ccc(-n2nc(C(F)(F)F)cc2C(F)(F)F)cc1)C(=O)c1cccc(F)c1F` [Compound 25, 3-[4-(3,5-Bis-trifluoromethyI-pyrazol-1-yl)-phenyl]-2-(2,3-difluoro-benzoyl)-acrylonitrile], for which the IC50 is > 1000 nM.

With `N#CC(=Cc1ccc(-n2ccc(-c3cccs3)n2)cc1)C(=O)c1ccccc1` [Compound 28, 2-Benzoyl-3-[4-(3-thiophen-2-yl-pyrazol-1-yl)-phenyl]-acrylonitrile], the IC50 is > 1000 nM.

For the molecule `Cc1ccn(-c2ccc(C=C(C#N)C(=O)c3ccco3)cc2)n1` [Compound 29, 2-(Furan-2-carbonyl)-3-[4-(3-methyl-pyrazol-1-yl)-phenyl]-acrylonitrile], the IC50 was > 1000 nM.

Take `N#CC(=Cc1ccc(-n2cccn2)cc1)C(=O)c1ccccc1` [Compound 30, 2-Benzoyl-3-(4-pyrazol-1-yl-phenyl)-acrylonitrile]: the IC50 is > 1000 nM.

As for `N#CC(=Cc1ccc(-n2ccc(-c3ccccc3)n2)cc1)C(=O)c1ccco1` [Compound 31, 2-(Furan-2-carbonyl)-3-[4-(3-phenyl-pyrazol-1-yl)-phenyl]-acrylonitrile], the IC50 is > 1000 nM.

For `N#CC(=Cc1ccc(-n2nc(C(F)(F)F)cc2C(F)(F)F)cc1)C(=O)c1ccco1` [Compound 33, 3-[4-(3,5-Bis-trifluoromethyl-pyrazol-1-yl)-phenyl]-2-(furan-2-carbonyl)-acrylonitrile], the IC50 was > 1000 nM.

Turning to `N#CC(=Cc1ccc(-n2nc(C(F)(F)F)cc2C(F)(F)F)cc1)C(=O)c1ccc(F)cc1F` [Compound 34, 3-[4-(3,5-Bis-trifluoromethyl-pyrazol-1-yl)-phenyl]-2-(2,4-difluoro-benzoyl)-acrylonitrile], the IC50 was > 1000 nM.

With `N#CC(=Cc1ccc(-n2ccc(-c3ccccc3)n2)cc1)C(=O)c1cccc(F)c1F` [Compound 35, 2-(2,3-Difluoro-benzoyl)-3-[4-(3-phenyl-pyrazol-1-yl)-phenyl]-acrylonitrile], the IC50 is > 1000 nM.

With `N#CC(=Cc1ccc(-n2ccc(C(F)(F)F)n2)cc1)C(=O)c1ccc(F)cc1F` [Compound 37, 2-(2,4-Difluoro-benzoyl)-3-[4-(3-trifluoromethyl-pyrazol-1-yl)-phenyl]-acrylonitrile], the IC50 was > 1000 nM.

`N#CC(=Cc1ccc(-n2ccc(C(F)(F)F)n2)cc1)C(=O)c1cccc(F)c1F` [Compound 38, 2-(2,3-Difluoro-benzoyl)-3-[4-(3-trifluoromethyl-pyrazol-1-yl)-phenyl]-acrylonitrile]: the IC50 was > 1000 nM.

For the molecule `Cc1cc(C(F)(F)F)n(-c2ccc(C=C(C#N)C(=O)c3ccc(F)cc3F)cc2)n1` [Compound 39, 2-(2,4-Difluoro-benzoyl)-3-[4-(3-methyl-5-trifluoromethyl-pyrazol-1-yl)-phenyl]-acrylonitrile], the IC50 was > 1000 nM.

Regarding `Cc1cc(C(F)(F)F)n(-c2ccc(C=C(C#N)C(=O)c3cc(F)ccc3F)cc2)n1` [Compound 40, 2-(2,5-Difluoro-benzoyl)-3-[4-(3-methyl-5-trifluoromethyl-pyrazol-1-yl)-phenyl]-acrylonitrile], the IC50 was > 1000 nM.

As to `N#CC(=Cc1ccc(-n2ccc(C(F)(F)F)n2)cc1)C(=O)c1cc(F)ccc1F` [Compound 41, 2-(2,5-Difluoro-benzoyl)-3-[4-(3-trifluoromethyl-pyrazol-1-yl)-phenyl]-acrylonitrile], the IC50 was > 1000 nM.

The test is the same for the next values; noted with them: Jurkat cells, PHA 2.5 μg/ml, 20 hours incubation, human IL-2 ELISA of supernatant; read-out: IC50 (concentration at which IL-2 release is inhibited by 50%).
As for `N#CC(=Cc1ccc(-n2nc(C(F)(F)F)cc2C(F)(F)F)cc1Cl)c1cccc(F)c1F` [Compound 13, 3-[4-(3,5-Bis-trifluoromethyl-pyrazol-1-yl)-2-chloro-phenyl]-2-(2,3-difluoro-phenyl)-acrylonitrile], the IC50 is > 1000 nM.

As for `N#CC(=Cc1ccccc1-n1nc(C(F)(F)F)cc1C(F)(F)F)c1cccc(F)c1F` [Compound 14, 3-[2-(3,5-Bis-trifluoromethyl-pyrazol-1-yl)-phenyl]-2-(2,3-difluoro-phenyl)-acrylonitrile], the IC50 was > 1000 nM.

For the origin of these results see patent US7705029B2 (Synta Pharmaceuticals Corp., priority 2004, dated 2010).
